This assay has as its system Methionine aminopeptidase-2. Briefly: cell resolved thermal shift assay (FACS sorting, heating, Western blot). Format: cell-based, mouse. The settings on record: TNP-470 final concentration 2 μM for one hour; mixed cells FACS sorted; heated 44 to 52° C.; MetAP-2 Western blot; FIG. 3. Background: A western blot detects proteins with antibodies after separation by electrophoresis.

Experimental: Human cancer cell line K562 and mouse fibrosarcoma cell line T241 with endogenous expression of GFP, were cultured to short-term passages (3-15) in an incubator chamber. The T241 cells were treated with the MetAP-2 inhibitor TNP-470 (final concentration 2 μM) for one hour in the incubator chamber. Following incubation, the cells were washed by repeated centrifugation to pellet cells and re-dissolve in PBS. After this step, the cells were pooled into a PBS buffer. This mix of cells was then subjected to FACS sorting using a MoFlo XDP from Beckman Coulter. Cells were either sorted by their GFP fluorescence (T241) or by the lack of fluorescence (K562). The sorted cells were then aliquoted in 8 tube PCR strips and subjected to heating to temperatures ranging from 44 to 52° C. with two degree increments. After heating, the cells were snap frozen in N2 (I) and freeze thawed. The resulting cell debris together with precipitated protein was pelleted by centrifugation at 20000*g for 20 minutes. The supernatants, containing various amount of the target protein (MetAP-2) were subjected to standard SDS-Page and Western blot analysis using a specific primary MetAP-2 antibody (Santa Cruz Biotechnology SC-365637) at 1:400 dilution in non-fat dietary milk.

With `CO[C@@H]1[C@H](OC(=O)NC(=O)CCl)CC[C@]2(CO2)[C@H]1[C@@]1(C)O[C@@H]1CC=C(C)C` [TNP-470], the “stabilisation of the target protein Methionine aminopeptidase-2 (dark band shows presence of heat stabilised protein)” value is listed as “stabilisation”.

(Values after patent publication US11480578B2, “Method for identifying a biomarker indicative of a reduced drug response using a thermal shift assay” (Pelago Bioscience AB, priority 2014, dated 2022).)
